Structures are written as SMILES.

A word on the melting point: it is the temperature of the solid-liquid transition. In turn, `CCNC(=O)Nc1ccc2ncc(-c3cccc(CO)c3)nc2n1` [Compound 115, 1-Ethyl-3-[3-(3-hydroxymethyl-phenyl)-pyrido[2,3-b]pyrazin-6-yl]-urea] showed a melting point of 200 to 202 °C.

In the case of `COc1ccc(-c2ccc3ncc(NC(=O)NC(C)(C)C)nc3n2)cc1OC` [Compound 568, 1-tert-Butyl-3-[6-(3,4-dimethoxy-phenyl)-pyrido[2,3-b]pyrazin-3-yl]-urea], the melting point is 230 to 233 °C.

Consider `CCNC(=S)Nc1ccc2ncc(Nc3ccc(O)c(C)c3)nc2n1` [Compound 331, 1-Ethyl-3-[3-(4-hydroxy-3-methyl-phenylamino)-pyrido[2,3-b]pyrazin-6-yl]-thiourea], for which the melting point was 258 °C.

`CCNC(=S)Nc1ccc2ncc(N(C)c3cc(OC)c(OC)c(OC)c3)nc2n1` [Compound 706, 1-Ethyl-3-{3-[methyl-(3,4,5-trimethoxy-phenyl)-amino]-pyrido[2,3-b]pyrazin-6-yl}-thiourea] came in with a melting point of 222 °C.

In the case of `CCNC(=O)Nc1ccc2ncc(Nc3cccc(Oc4ccccc4)c3)nc2n1` [Compound 155, 1-Ethyl-3-[3-(3-phenoxy-phenylamino)-pyrido[2,3-b]pyrazin-6-yl]-urea], the melting point came out at 230 °C.

The compound `CCNC(=O)Nc1ccc2ncc(-c3ccc(-c4ccccc4)cc3F)nc2n1` [Compound 84, 1-Ethyl-3-[3-(3-fluoro-biphenyl-4-yl)-pyrido[2,3-b]pyrazin-6-yl]-urea] came in with a melting point of 263.9 to 265.6 °C.

For `CCNC(=O)Nc1ccc2ncc(-c3cccc(OCc4cc(OC)cc(OC)c4)c3)nc2n1` [Compound 121, 1-{3-[3-(3,5-Dimethoxy-benzyloxy)-phenyl]-pyrido[2,3-b]pyrazin-6-yl}-3-ethyl-urea], the melting point is 212 to 217 °C.

Regarding `COc1cc(-c2ccc3ncc(NC(=O)Nc4ccc(N5CCN(C)CC5)cc4)nc3n2)ccc1O` [Compound 620, 1-[6-(4-Hydroxy-3-methoxy-phenyl)-pyrido[2,3-b]pyrazin-3-yl]-3-[4-(4-methyl-piperazin-1-yl)-phenyl]-urea], the melting point is 207 to 210 °C.

`COc1cc(-c2ccc3ncc(NC(=O)NCCCc4ccccc4)nc3n2)ccc1O` [Compound 629, 1-[6-(4-Hydroxy-3-methoxy-phenyl)-pyrido[2,3-b]pyrazin-3-yl]-3-(3-phenyl-propyl)-urea] yielded a melting point of 233 to 236 °C.

Compound `CCNC(=O)Nc1ccc2ncc(-c3c(F)cccc3OC)nc2n1` [Compound 137] displayed a melting point of 236 to 239 °C.

As to `COc1cc(-c2ccc3ncc(NC(=O)NC(C)C)nc3n2)ccc1O` [Compound 19, 1-[6-(4-Hydroxy-3-methoxy-phenyl)-pyrido[2,3-b]pyrazin-3-yl]-3-isopropyl-urea], the melting point lay within 212 to 214 °C.

For `CCNC(=O)Nc1ccc2ncc(-c3ccsc3)nc2n1` [Compound 141, 1-Ethyl-3-(3-thiophen-3-yl-pyrido[2,3-b]pyrazin-6-yl)-urea], the melting point is 250 °C.

`CCNC(=O)Nc1cnc2ccc(N3CCC(O)CC3)nc2n1` [Compound 235, 1-Ethyl-3-[6-(4-hydroxy-piperidin-1-yl)-pyrido[2,3-b]pyrazin-3-yl]-urea] registered a melting point of 249 to 251 °C.

Compound `COc1cc(-c2ccc3ncc(NC(=O)NC(C)(C)C)nc3n2)ccc1O` [Compound 28, 1-tert-Butyl-3-[6-(4-hydroxy-3-methoxy-phenyl)-pyrido[2,3-b]pyrazin-3-yl]-urea] showed a melting point of 219 to 222 °C.

For `CCNC(=O)Nc1ccc2ncc(-c3cc(C)cc(Br)c3OCc3ccccc3)nc2n1` [Compound 109, 1-[3-(2-Benzyloxy-3-bromo-5-methyl-phenyl)-pyrido[2,3-b]pyrazin-6-yl]-3-ethyl-urea], the melting point is 236 to 238 °C.

Take `COc1cc(Nc2cnc3ccc(NC(=S)NCC4CCCCC4)nc3n2)cc(OC)c1OC` [Compound 696, 1-Cyclohexylmethyl-3-[3-(3,4,5-trimethoxy-phenylamino)-pyrido[2,3-b]pyrazin-6-yl]-thiourea]: the melting point is 347 °C.

Take `CCNC(=O)Nc1ccc2ncc(-c3cccc(C)c3C)nc2n1` [Compound 107, 1-[3-(2,3-Dimethyl-phenyl)-pyrido[2,3-b]pyrazin-6-yl]-3-ethyl-urea]: the melting point was 260 °C.

Take `CCNC(=O)Nc1cnc2ccc(Nc3cccc(CC(=O)O)c3)nc2n1` [Compound 194, {3-[3-(3-Ethyl-ureido)-pyrido[2,3-b]pyrazin-6-ylamino]-phenyl}-acetic acid]: the melting point lay in the range of 305 to 308 °C.

Take `CCNC(=O)Nc1ccc2ncc(Nc3ccccc3)nc2n1` [Compound 64, 1-Ethyl-3-(3-phenylamino-pyrido-[2,3-b]pyrazin-6-yl)-urea]: the melting point fell in the range of 229 to 231 °C.

Compound `CCNC(=O)Nc1ccc2ncc(-c3cnn(Cc4ccccc4)c3)nc2n1` [Compound 58, 1-[3-(1-Benzyl-1H-pyrazol-4-yl)-pyrido[2,3-b]pyrazin-6-yl]-3-ethyl-urea] returned a melting point of 258 to 261 °C.

On to `CCNC(=S)Nc1cnc2ccc(Nc3ccc(C)c(NS(C)(=O)=O)c3)nc2n1` [Compound 207, N-{5-[3-(3-Ethyl-thioureido)-pyrido[2,3-b]pyrazin-6-ylamino]-2-methyl-phenyl}-methanesulfonamide], for which the melting point was 236 °C.

`CCNC(=O)Nc1cnc2ccc(-c3ccc(N)c(OC)c3)nc2n1` [Compound 2, 1-[6-(4-Amino-3-methoxy-phenyl)-pyrido[2,3-b]pyrazin-3-yl]-3-ethyl-urea] had a melting point of more than 310 °C.

In turn, `CCNC(=O)Nc1ccc2ncc(-c3cc(C)c(C)c(C)c3)nc2n1` [Compound 151, 1-Ethyl-3-[3-(3,4,5-trimethyl-phenyl)-pyrido[2,3-b]pyrazin-6-yl]-urea] came in with a melting point of 228 to 233 °C.

In turn, `C=CCNC(=S)Nc1cnc2ccc(-c3ccc(O)c(OC)c3)nc2n1` [Compound 521, 1-Allyl-3-[6-(4-hydroxy-3-methoxy-phenyl)-pyrido[2,3-b]pyrazin-3-yl]-thiourea] displayed a melting point of 261 to 262 °C.

As to `CCNC(=O)Nc1ccc2ncc(Nc3ccc(C(=O)OC)c(OC)c3)nc2n1` [Compound 87, 4-[6-(3-Ethyl-ureido)-pyrido[2,3-b]pyrazin-3-ylamino]-2-methoxy-benzoic acid methyl ester], the melting point fell in the range of 256 to 259 °C.

`CCNC(=O)Nc1ccc2ncc(-c3ccc(C(=O)OC)c(F)c3)nc2n1` [Compound 143, 4-[6-(3-Ethyl-ureido)-pyrido[2,3-b]pyrazin-3-yl]-2-fluoro-benzoic acid methyl ester] came in with a melting point of 250 to 252 °C.

The compound `COCCCNC(=S)Nc1ccc2ncc(Nc3cc(OC)c(OC)c(OC)c3)nc2n1` [Compound 710, 1-(3-Methoxy-propyl)-3-[3-(3,4,5-trimethoxy-phenylamino)-pyrido[2,3-b]pyrazin-6-yl]-thiourea] returned a melting point of 246 °C.

`CCNC(=O)Nc1ccc2ncc(-c3cccc(F)c3)nc2n1` [Compound 129, 1-Ethyl-3-[3-(3-fluoro-phenyl)-pyrido[2,3-b]pyrazin-6-yl]-urea]: the melting point is 283 to 286 °C.

Compound `CCNC(=O)Nc1cnc2ccc(Nc3ccc(O)cc3)nc2n1` [Compound 24, 1-Ethyl-3-[6-(4-hydroxy-phenylamino)-pyrido[2,3-b]pyrazin-3-yl]-urea] yielded a melting point of 277 °C.

`CCNC(=O)Nc1cnc2ccc(-c3ccc(C(C)=O)s3)nc2n1` [Compound 183, 1-[6-(5-Acetyl-thiophen-2-yl)-pyrido[2,3-b]pyrazin-3-yl]-3-ethyl-urea]: the melting point is more than 250 °C.

Turning to `CCNC(=O)Nc1ccc2ncc(-c3cc(C(C)=O)ccc3F)nc2n1` [Compound 79, 1-[3-(5-Acetyl-2-fluoro-phenyl)-pyrido[2,3-b]pyrazin-6-yl]-3-ethyl-urea], the melting point was in the range of 238.1 to 241.8 °C.

In turn, `CCNC(=O)Nc1ccc2ncc(-c3cccc(OCC)c3)nc2n1` [Compound 130, 1-[3-(3-Ethoxy-phenyl)-pyrido[2,3-b]pyrazin-6-yl]-3-ethyl-urea] came in with a melting point of 220 to 223 °C.

The compound `CCNC(=S)Nc1ccc2ncc(Nc3ccc4ccccc4c3)nc2n1` [Compound 168, 1-Ethyl-3-[3-(naphthalen-2-ylamino)-pyrido[2,3-b]pyrazin-6-yl]-thiourea] displayed a melting point of 289 °C.

In turn, `CCNC(=O)Nc1cnc2ccc(-c3ccncc3)nc2n1` [Compound 7, 1-Ethyl-3-(6-pyridin-4-yl-pyrido[2,3-b]pyrazin-3-yl)-urea] yielded a melting point of 211 °C.

Compound `COc1cc(-c2ccc3ncc(NC(=O)Nc4cccc([N+](=O)[O-])c4)nc3n2)ccc1O` [Compound 618, 1-[6-(4-Hydroxy-3-methoxy-phenyl)-pyrido[2,3-b]pyrazin-3-yl]-3-(3-nitro-phenyl)-urea] registered a melting point of 274 to 276 °C.

In turn, `O=C(Nc1ccc(N2C(=O)C=CC2=O)cc1)Nc1cnc2ccc(-c3cc(Cl)c(O)c(Cl)c3)nc2n1` [Compound 565, 1-[6-(3,5-Dichloro-4-hydroxy-phenyl)-pyrido[2,3-b]pyrazin-3-yl]-3-[4-(2,5-dioxo-2,5-dihydro-pyrrol-1-yl)-phenyl]-urea] displayed a melting point of more than 300 °C.

In turn, `CCNC(=O)Nc1ccc2ncc(-c3ccc(OCCCN4CCOCC4)c(OC)c3)nc2n1` [Compound 63, 1-Ethyl-3-{3-[3-methoxy-4-(3-morpholin-4-yl-propoxy)-phenyl]-pyrido[2,3-b]pyrazin-6-yl}-urea] returned a melting point of 225 to 227 °C.

On to `CCNC(=O)Nc1ccc2ncc(-c3ccc(C)c(F)c3)nc2n1` [Compound 83, 1-Ethyl-3-[3-(3-fluoro-4-methyl-phenyl)-pyrido[2,3-b]pyrazin-6-yl]-urea], for which the melting point was 247.8 to 252.4 °C.

As for `COc1cc(-c2ccc3ncc(NC(=O)Nc4ccc(N5C(=O)C=CC5=O)cc4)nc3n2)ccc1O` [Compound 622, 1-[4-(2,5-Dioxo-2,5-dihydro-pyrrol-1-yl)-phenyl]-3-[6-(4-hydroxy-3-methoxy-phenyl)-pyrido[2,3-b]pyrazin-3-yl]-urea], the melting point was 290 to 293 °C.

Regarding `CCNC(=S)Nc1ccc2ncc(Nc3ccc(-n4cncn4)cc3)nc2n1` [Compound 164, 1-Ethyl-3-[3-(4-[1,2,4]triazol-1-yl-phenylamino)-pyrido[2,3-b]pyrazin-6-yl]-thiourea], the melting point came to 294 °C.

The values above are taken from US8536332B2, “Modulating signal transduction pathways with substituted pyridol [2,3-b] pyrazines” (Aeterna Zentaris GmbH, priority 2007, dated 2013).
